Measurements published in the NIST ThermoML archive (doi:10.1016/j.tca.2015.09.008).
Where “and” joins values, the source holds several entries; their conditions need not be identical. Equal values may be shown once.

Conditions: Crystal, Calculated from knudsen effusion weight loss

[I][La]([I])[I] [lanthanum triiodide]
Conditions	vapor or sublimation pressure
827 K	4.7e-07 kPa
845 K	1.1e-06 kPa
862 K	2.5e-06 kPa
869 K	3.5e-06 kPa
875 K	4.7e-06 kPa
884 K	7.1e-06 kPa
905 K	1.7e-05 kPa
910 K	2.2e-05 kPa and 8.9e-06 kPa
921 K	1.6e-05 kPa and 3.4e-05 kPa
937 K	6.5e-05 kPa and 4e-05 kPa
943 K	8.1e-05 kPa and 5.4e-05 kPa
953 K	0.00012 kPa and 9.1e-05 kPa
962 K	0.00017 kPa and 0.00014 kPa
978 K	0.00031 kPa and 0.00033 kPa
